How the values were obtained:
Assay type in all cases: in vivo, Sprague-Dawley rats
[1] = tested on: 6-OHDA Stereotactic Injection Induced PD Rats; assay: Rotarod test; conditions: for Time on the Rod: Mean ± SEM, N=10, Model 63.250 ± 9.871
Source text: (§1) The rats were respiratory anesthetized with isoflurane; the head was fixed to ensure that there was no movement and the brain surface was adjusted to be flat; the head was shaved, and a skin incision was made along the sagittal suture to expose the fontanel point; the glass electrode was positioned to the fontanel, and the axes of the coordinate monitor were zeroed to locate the brain areas of the SN and the Str based on the coordinates, in which the SN: AP=−5.0 mm; ML=−1.9 mm; DV=−8.5 mm, and Str: AP=+0.5 mm; ML=−3.0 mm; DV=−6.0 mm. […]; slowly inserted the needle into the localized area of SN and Str, waited for 10 min, and then administered the drug of 6-OHDA at a rate of […] for 10 min, and each animal was given […] of each of SN and Str area, and then the needle was slowly withdrawn after the drug was administered for 10 min, and the PD rat model was established.
The rotation speed of the rotary rod fatigue meter was set to 20 rpm/min with the test time of 5 min. The animals were placed on the rotating rod in batches for testing, and the time each animal spent on the rod was recorded to evaluate the motor coordination ability of the rats. Information on the rotarod test can also be found in the literature (Bohlen, et al. 2009 J Neurosci Methods 178(1):10-4).
In this study, 16 Sprague Dawley (SD) male rats 180g-220g were used to establish a PD model by stereotactic unilateral injection of 6-OHDA in the substantia nigra (SN) and striatum (Str) brain areas after one week of acclimatization feeding and were randomly divided into 2 groups of 8 rats each. One group was dosed with the test compound BTUDC 500 mg/kg (QD, p.o.) and the other group was the Model group, which was given an equal volume of 0.5% CMC-Na (QD, p.o.) as the test compound group. […]
(§2) Experimental Methods: Seventy 180-220g SD male rats were selected and fed for one week for accumulation, and the PD model was established by stereotactic unilateral injection of 6-OHDA in the Substantia Nigra (SN) and Striatum (Str) regions and were randomly divided into five groups according to their body weights including Madopar group (Madopar, 50 mg/kg), BTUDC-L group (BTUDC, 100 mg/kg), BTUDC-M group (BTUDC, 500 mg/kg), and BTUDC-H group (BTUDC, 1000 mg/kg), with 10 animals in each group. […] At the end of the administration, the test articles were evaluated for tolerance in this model and in behavioral apomorphine—asymmetric rotation test, beam test, rotarod test and grip strength test, immunofluorescence staining (TH, Ibal), and cerebrospinal fluid inflammatory factor assays to evaluate the pharmacodynamic effects of the test articles. […]

[2] = tested on: microglia (Iba-1) positive cells; assay: Immunofluorescence staining of Iba-1 in Str and SN brain regions; conditions: Mean ± SEM, N=15; for Iba-1 staining SN positive cells num.: Model 397.8 ± 21.2; for Iba-1 staining Str positive cells num.: Model 668.3 ± 13.0
Method: After the rat was anesthetized, the abdominal cavity and thorax were cut open with straight scissors to expose the heart. The blood was first flushed out with normal saline perfusion, and then paraformaldehyde was used for initial perfusion fixation. The head was cut off, and the brain case was carefully opened with tweezers, and the brain tissue was removed and placed in paraformaldehyde solution and fix for 24 h; on the second day, took out the brain tissue and placed in 20% sucrose solution for 24 h; on the third day, took out the brain tissue and placed in 30% sucrose solution for 24 h; on the fourth day, took out the brain tissue and placed in 35% sucrose solution for 24 h (increase the time or concentration appropriately according to the condition of sugar deposition in the brain tissues); took out the brain tissue, embedded it in OCT embedding agent, and cut brain slices at the thickness of […] with a freezing microtome.
Immunohistochemical staining of TH and Iba-1 was performed on the sections. Sections were rewarmed for 30 min, closed at room temperature for 1 h with 50% serum+0.3% TritonX-100 in 50 μL per slice, shook off the slices, added primary antibody (diluted in PBS), overnight at 4° C.; rewarmed for 30 min; washed off primary antibody (PBS), 5 min×3 times; added secondary antibody (diluted in PBS) by backlighting, room temperature for 2 h; washed off secondary antibody (PBS), 5minx 3 times; added (4′,6-diamidino-2-phenylindole) (DAPI), and stayed at room temperature for 10 min; washed off DAPI, 5 min×3 times; added 70% glycerol to seal the slices to avoid air bubbles. Observed and took pictures under a microscope. Selected basically the same target brain area for each slice. Afterwards, ImageJ was used to count the signal number or area of the entire slice.
Experimental Methods: Seventy 180-220g SD male rats were selected and fed for one week for accumulation, and the PD model was established by stereotactic unilateral injection of 6-OHDA in the Substantia Nigra (SN) and Striatum (Str) regions and were randomly divided into five groups according to their body weights including Madopar group (Madopar, 50 mg/kg), BTUDC-L group (BTUDC, 100 mg/kg), BTUDC-M group (BTUDC, 500 mg/kg), and BTUDC-H group (BTUDC, 1000 mg/kg), with 10 animals in each group. Another 10 SD male rats were taken for sham operation (only 4 μL of 0.9% NS containing 0.02% ascorbic acid was given to the SN and Str brain regions during modeling) as the Sham group. The drug was administered by gavage once daily continuously for 21 days starting on the second day of modeling (first day of dosing, D1). General observation was made during the dosing period. At the end of the administration, the test articles were evaluated for tolerance in this model and in behavioral apomorphine—asymmetric rotation test, beam test, rotarod test and grip strength test, immunofluorescence staining (TH, Ibal), and cerebrospinal fluid inflammatory factor assays to evaluate the pharmacodynamic effects of the test articles. Inflammatory factors tested included interleukin 6 (1L-6), inflammatory factor […], Tumor Necrosis Factor alpha (TNF-α), inflammatory assays were done in a total of 4 groups included Sham, Model, Madopar and BTUDC-H groups.
Dosing volume: 10 mL/kg • 1. General observation: During the period of drug administration, body weight, food intake test and cage side observation were conducted every 3 days. • 2. Behavioral test: After 21 days of administration, behavioral test was carried out on the following day. • 3. […]

[3] = tested on: 6-OHDA Stereotactic Injection Induced PD Rats; assay: Grip strength test; conditions: for Peak Grip Strength: Mean ± SEM, N=10, Model 558.334 ± 10.175, p<0.001 vs Model
Source text: as §1
The animal was placed on the platform with both forelimbs on the gripping pole, followed by grabbing the animal's tail, and pulling it straight back until the pulling force exceeded their gripping force. After the animals lose their grip, the preamplifier automatically recorded the maximum value of the pulling force. After the measurement was completed, the average of the maximum pulling force of each group of animals was calculated to evaluate the rat's locomotor muscle ability. Information on the grip strength test can also be found in the literature (Jeyasingham, et al. 2001 Brain Res Bull. 55(4):541-8).
In this study, 16 Sprague Dawley (SD) male rats 180g-220g were used to establish a PD model by stereotactic unilateral injection of 6-OHDA in the substantia nigra (SN) and striatum (Str) brain areas after one week of acclimatization feeding and were randomly divided into 2 groups of 8 rats each. […]
as §2

[4] = BTUDC-H 1000 mg/kg p.o. Qd 21 days, p<0.001 vs Model
[5] = BTUDC-L 100 mg/kg p.o. Qd 21 days, no significance mark

## COc1ccc2cc3[n+](cc2c1OC)CCc1cc2c(cc1-3)OCO2.C[C@H](CCC(=O)NCCS(=O)(=O)[O-])[C@H]1CC[C@H]2[C@@H]3[C@@H](O)C[C@@H]4C[C@H](O)CC[C@]4(C)[C@H]3CC[C@]12C [BTUDC, Berberine tauroursodeoxycholate]
[1]; 500 mg/kg QD p.o. 21 days, Model 44.063 ± 4.6049, P < 0.001 vs Model
  Rotarod Test Rod time: 252.413 ± 14.4032 s
[1]; [4]
  Time on the Rod: 172.625 ± 17.355 s
[1]; [5]
  Time on the Rod: 103.220 ± 5.806 s
[1]; BTUDC-M 500 mg/kg p.o. Qd 21 days, p<0.001 vs Model
  Time on the Rod: 148.070 ± 21.760 s
[2]; [4]
  Iba-1 staining SN positive cells num.: 270.0 ± 21.5
  Iba-1 staining Str positive cells num.: 556.5 ± 16.2
[2]; [5]
  Iba-1 staining SN positive cells num.: 413.7 ± 42.8
[2]; BTUDC-L 100 mg/kg p.o. Qd 21 days, p<0.01 vs Model
  Iba-1 staining Str positive cells num.: 601.7 ± 14.2
[2]; BTUDC-M 500 mg/kg p.o. Qd 21 days, no significance mark
  Iba-1 staining SN positive cells num.: 393.1 ± 20.1
[2]; BTUDC-M 500 mg/kg p.o. Qd 21 days, p<0.01 vs Model
  Iba-1 staining Str positive cells num.: 602.7 ± 9.1
[3]; 500 mg/kg QD p.o. 21 days, Model 535.521 ± 15.5632, P < 0.001 vs Model
  Grip Strength Test Peak grip strength(gf): 757.479 ± 7.5044 gf
[3]; BTUDC-H 1000 mg/kg p.o. Qd 21 days
  Peak Grip Strength: 767.101 ± 6.668
[3]; BTUDC-L 100 mg/kg p.o. Qd 21 days
  Peak Grip Strength: 711.616 ± 7.934
[3]; BTUDC-M 500 mg/kg p.o. Qd 21 days
  Peak Grip Strength: 737.000 ± 8.222
